Results: the kinase profiling compilation of Christmann-Franck et al. (2016)

Tests used:
Experiment in all cases: KINOMEscan competition binding
Details in all cases: compound 10.0 µM
EPHA3 (human) = EPHA3 (human) (UniProt P29320)
EPHA8 (human) = EPHA8 (human) (UniProt P29322)
FLT4 (human) = FLT4 (human) (UniProt P35916)
MYO3A (human) = MYO3A (human) (UniProt Q8NEV4)
PRKAA2 (human) = PRKAA2 (human) (UniProt P54646)
EPHB3 (human) = EPHB3 (human) (UniProt P54753)
NTRK1 (human) = NTRK1 (human) (UniProt P04629)
PHKG1 (human) = PHKG1 (human) (UniProt Q16816)
KDR (human) = KDR (human) (UniProt P35968)
ACVR1B (human) = ACVR1B (human) (UniProt P36896)
ACVR1B (human), sequence (P36896 whole entry, looked up): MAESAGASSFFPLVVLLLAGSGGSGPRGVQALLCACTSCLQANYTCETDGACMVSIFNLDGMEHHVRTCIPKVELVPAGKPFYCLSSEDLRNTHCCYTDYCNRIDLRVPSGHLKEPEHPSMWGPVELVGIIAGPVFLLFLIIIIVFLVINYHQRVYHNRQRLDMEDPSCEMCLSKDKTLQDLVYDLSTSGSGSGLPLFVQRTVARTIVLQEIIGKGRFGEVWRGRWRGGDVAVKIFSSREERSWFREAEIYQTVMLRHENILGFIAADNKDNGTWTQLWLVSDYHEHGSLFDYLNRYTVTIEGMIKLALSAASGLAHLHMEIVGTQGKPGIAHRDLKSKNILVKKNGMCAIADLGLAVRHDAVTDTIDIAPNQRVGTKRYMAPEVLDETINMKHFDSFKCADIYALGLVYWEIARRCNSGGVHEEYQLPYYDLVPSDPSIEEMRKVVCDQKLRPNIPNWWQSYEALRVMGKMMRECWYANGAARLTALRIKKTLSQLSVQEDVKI

MARK2 (human) = MARK2 (human) (UniProt Q7KZI7)
AKT1 (human) = AKT1 (human) (UniProt P31749)
NTRK3 (human) = NTRK3 (human) (UniProt Q16288)
LIMK1 (human) = LIMK1 (human) (UniProt P53667)
LIMK1 (human), sequence (P53667 whole entry, looked up): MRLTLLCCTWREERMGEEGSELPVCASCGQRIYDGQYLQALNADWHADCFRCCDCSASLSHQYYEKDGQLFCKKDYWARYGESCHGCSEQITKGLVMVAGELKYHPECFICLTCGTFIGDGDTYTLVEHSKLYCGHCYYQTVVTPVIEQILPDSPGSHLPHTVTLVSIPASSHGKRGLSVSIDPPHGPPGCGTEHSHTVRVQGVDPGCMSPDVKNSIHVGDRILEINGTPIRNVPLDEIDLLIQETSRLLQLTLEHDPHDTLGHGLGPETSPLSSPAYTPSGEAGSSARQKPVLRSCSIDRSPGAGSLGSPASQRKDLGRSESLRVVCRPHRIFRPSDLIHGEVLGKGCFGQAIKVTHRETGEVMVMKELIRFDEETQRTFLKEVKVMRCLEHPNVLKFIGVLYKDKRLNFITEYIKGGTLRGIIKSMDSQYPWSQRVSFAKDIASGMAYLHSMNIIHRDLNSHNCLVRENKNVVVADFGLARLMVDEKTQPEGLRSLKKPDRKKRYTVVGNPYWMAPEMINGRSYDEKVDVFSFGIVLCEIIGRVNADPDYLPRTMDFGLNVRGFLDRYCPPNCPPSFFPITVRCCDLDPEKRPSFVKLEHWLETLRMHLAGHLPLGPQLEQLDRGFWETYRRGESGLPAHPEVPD

FGFR2 (human) = FGFR2 (human) (UniProt P21802)
EPHB2 (human) = EPHB2 (human) (UniProt P29323)
[1] = system: FGFR3 (human), P22607 [G697C]
PTK6 (human) = PTK6 (human) (UniProt Q13882)
MAP3K10 (human) = MAP3K10 (human) (UniProt Q02779)
MAP3K4 (human) = MAP3K4 (human) (UniProt Q9Y6R4)
IKBKB (human) = IKBKB (human) (UniProt O14920)
ULK1 (human) = ULK1 (human) (UniProt O75385)
EPHB1 (human) = EPHB1 (human) (UniProt P54762)
FGFR1 (human) = FGFR1 (human) (UniProt P11362)
MAPK12 (human) = MAPK12 (human) (UniProt P53778)
MAP4K1 (human) = MAP4K1 (human) (UniProt Q92918)
MAPK1 (human) = MAPK1 (human) (UniProt P28482)
NEK6 (human) = NEK6 (human) (UniProt Q9HC98)
NEK6 (human), sequence (Q9HC98 whole entry, looked up): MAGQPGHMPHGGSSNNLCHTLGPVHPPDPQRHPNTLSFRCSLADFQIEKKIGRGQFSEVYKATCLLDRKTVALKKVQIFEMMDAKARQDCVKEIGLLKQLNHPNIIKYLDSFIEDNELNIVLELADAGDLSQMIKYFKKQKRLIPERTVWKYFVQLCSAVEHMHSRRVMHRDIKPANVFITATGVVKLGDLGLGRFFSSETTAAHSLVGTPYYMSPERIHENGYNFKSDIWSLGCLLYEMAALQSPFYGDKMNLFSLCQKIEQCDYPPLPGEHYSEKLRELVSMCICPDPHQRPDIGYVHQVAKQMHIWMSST

LYN (human) = LYN (human) (UniProt P07948)
LYN (human), sequence (P07948 whole entry, looked up): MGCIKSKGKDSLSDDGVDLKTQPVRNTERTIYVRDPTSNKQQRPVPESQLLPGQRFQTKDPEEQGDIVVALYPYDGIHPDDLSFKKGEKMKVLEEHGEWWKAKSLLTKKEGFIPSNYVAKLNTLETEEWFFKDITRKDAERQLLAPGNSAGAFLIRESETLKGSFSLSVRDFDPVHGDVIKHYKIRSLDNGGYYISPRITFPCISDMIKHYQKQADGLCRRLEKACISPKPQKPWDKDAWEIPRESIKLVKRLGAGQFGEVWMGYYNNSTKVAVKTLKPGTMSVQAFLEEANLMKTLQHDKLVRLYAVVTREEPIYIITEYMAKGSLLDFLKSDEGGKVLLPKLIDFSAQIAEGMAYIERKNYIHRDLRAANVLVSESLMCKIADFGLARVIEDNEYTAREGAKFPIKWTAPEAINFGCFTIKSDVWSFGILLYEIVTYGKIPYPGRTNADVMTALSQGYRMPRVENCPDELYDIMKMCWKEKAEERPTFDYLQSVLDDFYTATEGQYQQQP

AXL (human) = AXL (human) (UniProt P30530)
IGF1R (human) = IGF1R (human) (UniProt P08069)
PRKG2 (human) = PRKG2 (human) (UniProt Q13237)
[2] = system: PIK3CA (human), P42336 [E545K]
CDC42BPB (human) = CDC42BPB (human) (UniProt Q9Y5S2)
CDC42BPA (human) = CDC42BPA (human) (UniProt Q5VT25)
CDC42BPA (human), sequence (Q5VT25 whole entry, looked up): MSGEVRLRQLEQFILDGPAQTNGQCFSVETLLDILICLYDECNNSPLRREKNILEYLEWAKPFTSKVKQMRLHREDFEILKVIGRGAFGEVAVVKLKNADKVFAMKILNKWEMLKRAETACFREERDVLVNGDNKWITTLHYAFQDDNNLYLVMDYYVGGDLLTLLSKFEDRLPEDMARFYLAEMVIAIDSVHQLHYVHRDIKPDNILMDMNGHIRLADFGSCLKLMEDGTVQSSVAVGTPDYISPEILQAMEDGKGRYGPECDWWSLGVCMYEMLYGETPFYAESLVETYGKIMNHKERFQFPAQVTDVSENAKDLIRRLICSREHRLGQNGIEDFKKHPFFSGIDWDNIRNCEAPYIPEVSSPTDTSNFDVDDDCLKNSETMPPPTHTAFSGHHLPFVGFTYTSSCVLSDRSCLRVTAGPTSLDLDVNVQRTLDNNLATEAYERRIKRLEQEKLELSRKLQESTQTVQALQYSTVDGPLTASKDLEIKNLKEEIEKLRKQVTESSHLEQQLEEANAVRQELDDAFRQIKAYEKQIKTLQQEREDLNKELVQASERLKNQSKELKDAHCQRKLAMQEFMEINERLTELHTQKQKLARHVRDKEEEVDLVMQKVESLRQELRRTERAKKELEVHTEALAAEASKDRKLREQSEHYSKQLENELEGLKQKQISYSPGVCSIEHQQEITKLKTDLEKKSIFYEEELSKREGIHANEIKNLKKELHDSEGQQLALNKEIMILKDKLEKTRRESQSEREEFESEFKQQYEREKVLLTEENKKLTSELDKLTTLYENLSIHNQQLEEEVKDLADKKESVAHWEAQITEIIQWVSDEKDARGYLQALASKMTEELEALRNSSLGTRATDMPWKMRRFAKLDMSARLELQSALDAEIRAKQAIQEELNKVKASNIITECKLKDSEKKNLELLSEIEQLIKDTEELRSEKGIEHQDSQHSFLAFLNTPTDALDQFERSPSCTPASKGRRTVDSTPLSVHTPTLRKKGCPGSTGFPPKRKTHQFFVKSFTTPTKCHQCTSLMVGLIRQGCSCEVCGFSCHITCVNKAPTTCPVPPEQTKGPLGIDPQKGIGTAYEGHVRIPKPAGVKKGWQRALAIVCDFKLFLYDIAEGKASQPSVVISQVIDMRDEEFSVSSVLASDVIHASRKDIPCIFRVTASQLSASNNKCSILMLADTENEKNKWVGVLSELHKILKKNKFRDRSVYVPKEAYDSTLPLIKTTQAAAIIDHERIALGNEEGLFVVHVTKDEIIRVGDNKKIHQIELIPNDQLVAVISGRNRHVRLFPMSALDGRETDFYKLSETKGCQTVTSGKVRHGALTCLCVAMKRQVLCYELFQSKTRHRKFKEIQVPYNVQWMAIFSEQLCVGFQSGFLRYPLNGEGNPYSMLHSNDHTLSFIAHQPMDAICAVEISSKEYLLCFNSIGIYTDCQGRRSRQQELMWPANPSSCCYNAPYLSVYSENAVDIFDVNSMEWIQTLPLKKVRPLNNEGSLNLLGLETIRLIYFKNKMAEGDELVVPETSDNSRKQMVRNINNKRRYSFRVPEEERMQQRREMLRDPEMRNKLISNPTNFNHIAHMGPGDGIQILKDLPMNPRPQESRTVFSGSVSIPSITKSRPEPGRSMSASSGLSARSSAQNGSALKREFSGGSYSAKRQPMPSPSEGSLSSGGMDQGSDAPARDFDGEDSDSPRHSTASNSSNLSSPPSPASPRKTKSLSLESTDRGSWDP

[3] = system: ABL1 (human), P00519 [Y253F]
PRKACB (human) = PRKACB (human) (UniProt P22694)
ANKK1 (human) = ANKK1 (human) (UniProt Q8NFD2)
RPS6KA2 KD1 (human) = RPS6KA2 KD1 (human) (UniProt Q15349)
RPS6KA2 KD1 (human), sequence (Q15349 whole entry, looked up): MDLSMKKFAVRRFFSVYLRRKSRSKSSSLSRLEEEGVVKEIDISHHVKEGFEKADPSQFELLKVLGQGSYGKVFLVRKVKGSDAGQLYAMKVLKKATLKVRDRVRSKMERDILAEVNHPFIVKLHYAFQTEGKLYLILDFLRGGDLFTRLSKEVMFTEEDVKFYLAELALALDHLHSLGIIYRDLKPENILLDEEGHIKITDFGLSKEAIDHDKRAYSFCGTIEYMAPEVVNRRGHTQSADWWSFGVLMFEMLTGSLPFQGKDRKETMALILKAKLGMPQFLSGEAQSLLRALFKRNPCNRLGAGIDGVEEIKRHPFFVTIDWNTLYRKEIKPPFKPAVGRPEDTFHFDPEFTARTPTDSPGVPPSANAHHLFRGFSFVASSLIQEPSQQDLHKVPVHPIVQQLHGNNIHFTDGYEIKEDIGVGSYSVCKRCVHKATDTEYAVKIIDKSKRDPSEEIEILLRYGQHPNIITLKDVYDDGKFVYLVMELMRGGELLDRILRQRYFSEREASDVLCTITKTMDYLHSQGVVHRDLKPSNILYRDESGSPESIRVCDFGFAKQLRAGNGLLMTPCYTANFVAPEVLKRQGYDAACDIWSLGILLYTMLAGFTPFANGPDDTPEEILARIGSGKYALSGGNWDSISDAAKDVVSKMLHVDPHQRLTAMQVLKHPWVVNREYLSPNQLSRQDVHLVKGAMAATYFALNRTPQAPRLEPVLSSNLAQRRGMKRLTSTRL

SIK1 (human) = SIK1 (human) (UniProt P57059)
CSF1R (human) = CSF1R (human) (UniProt P07333)
CAMK2D (human) = CAMK2D (human) (UniProt Q13557)
CAMK2D (human), sequence (Q13557 whole entry, looked up): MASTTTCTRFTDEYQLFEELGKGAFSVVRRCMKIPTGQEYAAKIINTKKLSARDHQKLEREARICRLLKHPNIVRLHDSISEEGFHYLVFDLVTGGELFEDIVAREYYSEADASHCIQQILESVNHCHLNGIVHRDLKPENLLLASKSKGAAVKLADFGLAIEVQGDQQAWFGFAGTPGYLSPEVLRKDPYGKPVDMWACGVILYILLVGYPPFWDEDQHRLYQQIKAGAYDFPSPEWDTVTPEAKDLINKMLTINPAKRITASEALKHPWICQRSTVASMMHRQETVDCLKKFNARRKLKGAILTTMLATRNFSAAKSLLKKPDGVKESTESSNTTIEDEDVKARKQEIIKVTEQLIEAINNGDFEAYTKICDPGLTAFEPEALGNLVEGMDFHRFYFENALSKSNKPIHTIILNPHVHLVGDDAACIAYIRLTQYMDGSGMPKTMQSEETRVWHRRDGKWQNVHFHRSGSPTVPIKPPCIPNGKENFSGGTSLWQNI

Compound: O=C1NC(=O)/C(=C/c2c[nH]c(=O)c(-c3ccc(N4CCNCC4)nc3)c2)S1
- kinase still bound, per cent of control (EPHA3 (human)): 67%
- kinase still bound, per cent of control (EPHA8 (human)): 76%
- kinase still bound, per cent of control (FLT4 (human)): 90%
- kinase still bound, per cent of control (MYO3A (human)): 46%
- kinase still bound, per cent of control (PRKAA2 (human)): 100%
- kinase still bound, per cent of control (EPHB3 (human)): 91%
- kinase still bound, per cent of control (NTRK1 (human)): 78%
- kinase still bound, per cent of control (PHKG1 (human)): 29%
- kinase still bound, per cent of control (KDR (human)): 100%
- kinase still bound, per cent of control (ACVR1B (human)): 80%
- kinase still bound, per cent of control (MARK2 (human)): 60%
- kinase still bound, per cent of control (AKT1 (human)): 100%
- kinase still bound, per cent of control (NTRK3 (human)): 88%
- kinase still bound, per cent of control (LIMK1 (human)): 94%
- kinase still bound, per cent of control (FGFR2 (human)): 100%
- kinase still bound, per cent of control (EPHB2 (human)): 71%
- kinase still bound, per cent of control [1]: 100%
- kinase still bound, per cent of control (PTK6 (human)): 83%
- kinase still bound, per cent of control (MAP3K10 (human)): 100%
- kinase still bound, per cent of control (MAP3K4 (human)): 14%
- kinase still bound, per cent of control (IKBKB (human)): 84%
- kinase still bound, per cent of control (ULK1 (human)): 21%
- kinase still bound, per cent of control (EPHB1 (human)): 95%
- kinase still bound, per cent of control (FGFR1 (human)): 100%
- kinase still bound, per cent of control (MAPK12 (human)): 60%
- kinase still bound, per cent of control (MAP4K1 (human)): 10%
- kinase still bound, per cent of control (MAPK1 (human)): 97%
- kinase still bound, per cent of control (NEK6 (human)): 100%
- kinase still bound, per cent of control (LYN (human)): 77%
- kinase still bound, per cent of control (AXL (human)): 24%
- kinase still bound, per cent of control (IGF1R (human)): 100%
- kinase still bound, per cent of control (PRKG2 (human)): 100%
- kinase still bound, per cent of control [2]: 37%
- kinase still bound, per cent of control (CDC42BPB (human)): 100%
- kinase still bound, per cent of control (CDC42BPA (human)): 73%
- kinase still bound, per cent of control [3]: 95%
- kinase still bound, per cent of control (PRKACB (human)): 100%
- kinase still bound, per cent of control (ANKK1 (human)): 70%
- kinase still bound, per cent of control (RPS6KA2 KD1 (human)): 64%
- kinase still bound, per cent of control (SIK1 (human)): 100%
- kinase still bound, per cent of control (CSF1R (human)): 69%
- kinase still bound, per cent of control (CAMK2D (human)): 59%

Compound: CN1CCN(c2ccc(C(=O)Nc3ncc4c(n3)N(C)c3ccccc3C(=O)N4C)cc2)CC1
- kinase still bound, per cent of control (EPHA3 (human)): 100%
- kinase still bound, per cent of control (EPHA8 (human)): 92%
- kinase still bound, per cent of control (FLT4 (human)): 100%
- kinase still bound, per cent of control (MYO3A (human)): 100%
- kinase still bound, per cent of control (PRKAA2 (human)): 100%
- kinase still bound, per cent of control (EPHB3 (human)): 100%
- kinase still bound, per cent of control (NTRK1 (human)): 82%
- kinase still bound, per cent of control (PHKG1 (human)): 98%
- kinase still bound, per cent of control (KDR (human)): 86%
- kinase still bound, per cent of control (ACVR1B (human)): 100%
- kinase still bound, per cent of control (MARK2 (human)): 100%
- kinase still bound, per cent of control (AKT1 (human)): 100%
- kinase still bound, per cent of control (NTRK3 (human)): 84%
- kinase still bound, per cent of control (LIMK1 (human)): 100%
- kinase still bound, per cent of control (FGFR2 (human)): 100%
- kinase still bound, per cent of control (EPHB2 (human)): 91%
- kinase still bound, per cent of control [1]: 98%
- kinase still bound, per cent of control (PTK6 (human)): 100%
- kinase still bound, per cent of control (MAP3K10 (human)): 99%
- kinase still bound, per cent of control (MAP3K4 (human)): 100%
- kinase still bound, per cent of control (IKBKB (human)): 100%
- kinase still bound, per cent of control (ULK1 (human)): 78%
- kinase still bound, per cent of control (EPHB1 (human)): 100%
- kinase still bound, per cent of control (FGFR1 (human)): 100%
- kinase still bound, per cent of control (MAPK12 (human)): 98%
- kinase still bound, per cent of control (MAP4K1 (human)): 98%
- kinase still bound, per cent of control (MAPK1 (human)): 100%
- kinase still bound, per cent of control (NEK6 (human)): 100%
- kinase still bound, per cent of control (LYN (human)): 94%
- kinase still bound, per cent of control (AXL (human)): 100%
- kinase still bound, per cent of control (IGF1R (human)): 100%
- kinase still bound, per cent of control (PRKG2 (human)): 90%
- kinase still bound, per cent of control [2]: 99%
- kinase still bound, per cent of control (CDC42BPB (human)): 98%
- kinase still bound, per cent of control (CDC42BPA (human)): 100%
- kinase still bound, per cent of control [3]: 100%
- kinase still bound, per cent of control (PRKACB (human)): 100%
- kinase still bound, per cent of control (ANKK1 (human)): 28%
- kinase still bound, per cent of control (RPS6KA2 KD1 (human)): 100%
- kinase still bound, per cent of control (SIK1 (human)): 100%
- kinase still bound, per cent of control (CSF1R (human)): 71%
- kinase still bound, per cent of control (CAMK2D (human)): 100%
